{
  "source": "paper PMC11762167",
  "about": "“G Protein-Coupled Receptor 17 Inhibits Glucagon-like Peptide-1 Secretion via a Gi/o-Dependent Mechanism in Enteroendocrine Cells” (Biomolecules, 2024)",
  "type_in_all_cases": "cell-based",
  "key": {"[1]": {"molecular_target": "T1, hGPR17L-V96M (Homo sapiens, UniProt Q13304, V96M)", "T1 construct": "host or cells: GLUTag cells, adenoviral transduction", "T1 sequence (Q13304 whole entry V96M)": "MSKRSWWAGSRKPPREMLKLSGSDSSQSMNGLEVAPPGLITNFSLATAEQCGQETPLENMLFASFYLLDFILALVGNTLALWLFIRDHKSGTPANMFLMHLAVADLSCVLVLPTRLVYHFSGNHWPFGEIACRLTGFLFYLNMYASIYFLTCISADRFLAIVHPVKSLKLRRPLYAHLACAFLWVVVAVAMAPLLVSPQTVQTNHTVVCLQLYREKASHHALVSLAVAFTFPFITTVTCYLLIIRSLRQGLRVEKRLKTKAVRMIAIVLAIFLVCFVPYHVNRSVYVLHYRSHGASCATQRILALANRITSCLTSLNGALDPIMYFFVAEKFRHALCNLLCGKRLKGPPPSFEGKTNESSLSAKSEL", "assay": "Endpoint cAMP in GLUTag cells expressing hGPR17L-V96M", "procedure": "(§1) GLUTag cells were maintained in Dulbecco’s Modified Eagle Medium (DMEM) supplemented with 10% fetal bovine serum and 1% penicillin–streptomycin in a humidified incubator at 37 °C and 5% CO2. For adenovirus transduction, GLUTag cells were seeded into poly-D-lysine coated 96-well plates or 4-chamber slides. The next day, cells were transduced with adenoviruses (100–1250 viral particles per cell at time of seeding) as indicated. After 24–30 h, adenovirus-containing media was changed to serum-free growth media for overnight serum starvation. The following day, GLUTag cells were used for cAMP or calcium signaling assays, GLP-1 secretion assays, or immunostaining and imaging.\nEndpoint cAMP measurements were conducted as follows. GLUTag cells were seeded into poly-D-lysine-coated 96-well plates and transduced with adenovirus as specified above and then tested for cAMP signaling. Medium was removed and cells were washed with cAMP stimulation buffer (Hanks’ balanced salt solution (HBSS), 20 mM HEPES, pH 7.4) and then incubated in cAMP stimulation buffer for 30 min at 37 °C and 5% CO2. Cells were then treated for 30 min with agonist and forskolin in the presence of 500 µM IBMX at 37 °C and 5% CO2. Stimulation buffer was then decanted, and cAMP lysis buffer (50 mM HEPES, 10 mM CaCl2, 0.35% Triton X-100, and 500 µM IBMX) was added and shaken at 700 rpm for 1 h. Lysate was transferred to a 384-well plate, and the cAMP levels were quantified using the Cisbio HTRF cAMP (Gi kit; Revvity, Waltham, MA, USA) according to the manufacturer’s protocol."}, "[2]": {"molecular_target": "T1, hGPR17L-V96M", "assay": "Calcium flux in GLUTag cells expressing hGPR17L-V96M", "settings": "for Mean Diff. (Tukey's multiple comparisons test, Figure 4C): hGPR17L-V96M", "procedure": "as §1\nGLUTag cells were seeded into black, clear bottom, poly-D-lysine-coated 96-well plates. Cells were transduced and serum starved as specified above. Growth medium was then replaced with 100 μL/well assay buffer (HBSS, 20 mM HEPES, pH 7.4) and 100 μL/well Calcium 6 loading dye (R8190; Molecular Devices, San Jose, CA, USA). During dye loading, cells were incubated at 37 °C and 5% CO2 for 2 h. MDL29,951 or KCl was added to the wells and fluorescence (485 nm excitation, 525 nm emission, and 515 nm automatic emission cutoff) was measured using a Molecular Devices FlexStation3 (Molecular Devices) at 37 °C. For experiments with PTX, cells were pretreated with 100 ng/mL PTX overnight and 100 ng/mL PTX was included with Calcium 6 loading dye for calcium flux assays. For experiments with YM-254890, cells were pretreated for 30 min at 37 °C."}, "[3]": {"molecular_target": "T2, hGPR17L (Homo sapiens, UniProt Q13304)", "T2 sequence (Q13304 whole entry)": "as the sequence (Q13304 whole entry V96M) above, with M96V counted along it", "assay": "Calcium mobilization in HEK293 cells transfected with hGPR17L", "procedure": "HEK293 cells were maintained and transfected as previously described.\nCalcium flux in HEK293 cells was measured as previously described."}, "[4]": {"molecular_target": "T2, hGPR17L", "assay": "GLP-1 secretion from GLUTag cells expressing hGPR17L", "design": "host or cells: GLUTag cells (murine enteroendocrine line), adenoviral transduction", "procedure": "as §1\nGLUTag cells were seeded into poly-D-lysine-coated 96-well plates and transduced with adenovirus as specified above and then tested for GLP-1 secretion. Medium was removed and cells were washed two times with GLP-1 secretion buffer (138 mM NaCl, 4.5 mM KCl, 4.2 mM NaHCO3, 2.5 mM CaCl2, 1.2 mM MgCl2, 10 mM HEPES, 1 mM glucose, and 0.1% bovine serum albumin, pH 7.4). Cells were stimulated for 2 h with indicated treatments diluted in GLP-1 secretion buffer for a total volume of 200 µL/well at 37 °C and 5% CO2. Plates were then centrifuged at 300× g for 1 min at 4 °C, and 75 µL of the supernatant was removed and frozen at −80 °C until subsequent GLP-1 quantification. Total GLP-1 was quantified using the Meso Scale Discovery Total GLP-1 V-PLEX kit (Rockville, MD, USA; K1503PD) according to manufacturer’s instructions. For PTX treatment conditions, cells were pretreated with 100 ng/mL PTX overnight. For experiments with YM-254890, cells were pretreated for 15 min at 37 °C and 5% CO2."}},
  "data": [
    {"molecule": "O=C(O)CCc1c(C(=O)O)[nH]c2cc(Cl)cc(Cl)c12", "note": "[MDL29,951]", "values": [
      {"measurement": "effect on forskolin-stimulated cAMP", "setting": "[1]; 10 µM forskolin, GLUTag hGPR17L-V96M", "value": "no significant effect"},
      {"measurement": "Mean Diff. (Tukey's multiple comparisons test), cAMP, Row 10 vs. Row 11", "setting": "[1]; hGPR17L-V96M (200), log [MDL29,951] (M) -4.0 vs. Vehicle, Forskolin stimulation, Figure 4B", "value": -6.053},
      {"measurement": "Mean Diff. (Tukey's multiple comparisons test), cAMP, Row 9 vs. Row 11", "setting": "[1]; hGPR17L-V96M (200), log [MDL29,951] (M) -4.6 vs. Vehicle, Forskolin stimulation, Figure 4B", "value": -5.593},
      {"measurement": "Mean Diff. (Tukey's multiple comparisons test), cAMP, Row 8 vs. Row 11", "setting": "[1]; hGPR17L-V96M (200), log [MDL29,951] (M) -5.2 vs. Vehicle, Forskolin stimulation, Figure 4B", "value": -7.097},
      {"measurement": "Mean Diff. (Tukey's multiple comparisons test), cAMP, Row 7 vs. Row 11", "setting": "[1]; hGPR17L-V96M (200), log [MDL29,951] (M) -5.8 vs. Vehicle, Forskolin stimulation, Figure 4B", "value": -12.44},
      {"measurement": "Mean Diff. (Tukey's multiple comparisons test), cAMP, Row 6 vs. Row 11", "setting": "[1]; hGPR17L-V96M (200), log [MDL29,951] (M) -6.4 vs. Vehicle, Forskolin stimulation, Figure 4B", "value": -8.68},
      {"measurement": "Mean Diff. (Tukey's multiple comparisons test), cAMP, Row 5 vs. Row 11", "setting": "[1]; hGPR17L-V96M (200), log [MDL29,951] (M) -7.0 vs. Vehicle, Forskolin stimulation, Figure 4B", "value": -6.907},
      {"measurement": "Mean Diff. (Tukey's multiple comparisons test), cAMP, Row 4 vs. Row 11", "setting": "[1]; hGPR17L-V96M (200), log [MDL29,951] (M) -7.6 vs. Vehicle, Forskolin stimulation, Figure 4B", "value": -4.737},
      {"measurement": "Mean Diff. (Tukey's multiple comparisons test), cAMP, Row 3 vs. Row 11", "setting": "[1]; hGPR17L-V96M (200), log [MDL29,951] (M) -8.2 vs. Vehicle, Forskolin stimulation, Figure 4B", "value": -3.133},
      {"measurement": "Mean Diff. (Tukey's multiple comparisons test), cAMP, Row 2 vs. Row 11", "setting": "[1]; hGPR17L-V96M (200), log [MDL29,951] (M) -8.8 vs. Vehicle, Forskolin stimulation, Figure 4B", "value": 3.127},
      {"measurement": "Mean Diff. (Tukey's multiple comparisons test), cAMP, Row 1 vs. Row 11", "setting": "[1]; hGPR17L-V96M (200), log [MDL29,951] (M) -9.4 vs. Vehicle, Forskolin stimulation, Figure 4B", "value": -1.35},
      {"measurement": "maximal calcium stimulation, % of that observed for hGPR17L-WT", "setting": "[2]; GLUTag hGPR17L-V96M", "value": "27 ± 1.5", "unit": "%"},
      {"measurement": "pEC50, calcium mobilization", "setting": "[2]; GLUTag hGPR17L-V96M", "value": "6.24 ± 0.07"},
      {"measurement": "EC50", "setting": "[2]; GLUTag hGPR17L-V96M, read-out: EC50, calcium mobilization", "value": 580, "unit": "nM"},
      {"measurement": "Mean Diff. (Tukey's multiple comparisons test, Figure 4C)", "setting": "[2]; log [MDL29,951] (M) -4.5 vs. Vehicle", "value": 27.53},
      {"measurement": "Mean Diff. (Tukey's multiple comparisons test, Figure 4C)", "setting": "[2]; log [MDL29,951] (M) -5.0 vs. Vehicle", "value": 24.23},
      {"measurement": "Mean Diff. (Tukey's multiple comparisons test, Figure 4C)", "setting": "[2]; log [MDL29,951] (M) -5.5 vs. Vehicle", "value": 21.87},
      {"measurement": "Mean Diff. (Tukey's multiple comparisons test, Figure 4C)", "setting": "[2]; log [MDL29,951] (M) -6.0 vs. Vehicle", "value": 17.65},
      {"measurement": "Mean Diff. (Tukey's multiple comparisons test, Figure 4C)", "setting": "[2]; log [MDL29,951] (M) -6.4 vs. Vehicle", "value": 11.95},
      {"measurement": "Mean Diff. (Tukey's multiple comparisons test, Figure 4C)", "setting": "[2]; log [MDL29,951] (M) -6.9 vs. Vehicle", "value": 4.328},
      {"measurement": "Mean Diff. (Tukey's multiple comparisons test, Figure 4C)", "setting": "[2]; log [MDL29,951] (M) -7.4 vs. Vehicle", "value": 1.581},
      {"measurement": "Mean Diff. (Tukey's multiple comparisons test, Figure 4C)", "setting": "[2]; log [MDL29,951] (M) -7.9 vs. Vehicle", "value": 0.8859},
      {"measurement": "Mean Diff. (Tukey's multiple comparisons test, Figure 4C)", "setting": "[2]; log [MDL29,951] (M) -8.3 vs. Vehicle", "value": 0.4181},
      {"measurement": "Mean Diff. (Tukey's multiple comparisons test, Figure 4C)", "setting": "[2]; log [MDL29,951] (M) -8.8 vs. Vehicle", "value": -0.03776},
      {"measurement": "Calcium Emax (Mean Peak ΔF/F)", "setting": "[3]", "value": "1.92±0.22"},
      {"measurement": "Calcium Potency (pEC50)", "setting": "[3]", "value": "7.29±0.11"},
      {"measurement": "EC50", "setting": "[3]; read-out: Calcium Potency EC50", "value": 51, "unit": "nM"},
      {"measurement": "concentration at which maximum inhibition of F/I-stimulated GLP-1 secretion was observed", "setting": "[4]", "value": 25, "unit": "µM"},
      {"measurement": "effect on F/I-stimulated GLP-1 secretion", "setting": "[4]; 100 nM MDL29,951, 10 μM forskolin and 10 μM IBMX", "value": "no effect"},
      {"measurement": "effect on GLP-1 secretion under basal conditions", "setting": "[4]; 100 nM or 100 µM MDL29,951, hGPR17L-transduced", "value": "no effect"},
      {"measurement": "IC50", "setting": "[4]; 10 µM forskolin and 10 µM IBMX, no antagonist, read-out: IC50, inhibition of F/I-stimulated GLP-1 secretion", "value": 300, "unit": "nM"},
      {"measurement": "inhibition of F/I-stimulated GLP-1 secretion", "setting": "[4]; 100 μM MDL29,951", "value": "30 ± 7.7", "unit": "%"},
      {"measurement": "effect on PMA-stimulated GLP-1 secretion as compared to vehicle-treated cells (raw data)", "setting": "[4]; 100 µM MDL29,951, 300 nM PMA", "value": "significantly inhibited"},
      {"measurement": "pIC50, inhibition of F/I-stimulated GLP-1 secretion", "setting": "[4]; no antagonist", "value": "6.53 ± 0.31"}
    ]}
  ]
}
